Results: patent publication US5962509A, “Dithiolylidene acetamide derivatives” (SSP Co., Ltd., priority 1997, dated 1999)

Test system: ovolysozyme
Experiment: AGE formation inhibitory action: formation of lysozyme dimer (crosslinking) on incubation with xylose, SDS-PAGE with silver staining
Type: biochemical
Details: 1 mg/ml ovolysozyme, 100 mM xylose, pH 7.4 phosphate-buffered saline, 37° C., 21 days; dimer (28.8 Kda) formation relative to control
Experimental: Solutions of the test compound shown in Table 1 in dimethyl sulfoxide, said solutions containing said test compound at various concentrations, were each added together with 1 mg/ml of ovolysozyme and 100 mM of xylose to a phosphate-buffered physiological saline of pH 7.4. Each reaction mixture was then incubated at 37° C. for 21 days. A portion of the reaction mixture, said portion being in a predetermined amount, was then separated by sodium lauryl sulfate-polyacrylamide gel electrophoresis (SDS-PAGE). After the electrophoresis, the gel was treated by silver staining to stain proteins. AGE formation inhibitory action of the test compound was calculated in terms of 50% inhibitory concentration by image-processing and analyzing the degree of formation of the dimer (28.8 Kda) of lysozyme (14.4 Kda) relative to that in a control, that is, a reaction mixture not added with the test compound while making use of NIH Image Ver. 1.55.

Row | Compound | AGE formation inhibitory action, 50% inhibitory concentration (IC50) [µg/mL]
1 | NN=C(N)N [Amionoguanidine, aminoguanidine] | 30
2 | CCCN(CCC)C(=O)C(CCC(=O)O)NC(=O)C=C1SC=CS1 (centres unmarked) [Example 1, 5-(dipropylamino)-4-((2-(1,3-dithiol-2-ylidene)acetyl)amino)-5-oxopentanoic acid] | 30
